# Assay results from patent US6737383B1, “Herbicidal oxadiazolidines” (priority 1999, dated 2004).
# Experiments:
# crabgrass = assay: Test B pre/postemergence crabgrass; assay type: in vivo, Digitaria sanguinalis
# Method in brief: (§1)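 Herbicidal effect was estimated by eye on a ten-point control scale after plants spent twelve to sixteen days in a greenhouse following soil or foliar treatment. Foliar sprays targeted plants at one to four leaves; all doses were formulated in a non-phytotoxic solvent with surfactant.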
# purple nutsedge = assay: Test B pre/postemergence purple nutsedge; assay type: in vivo, Cyperus rotundus
# Method in brief: as §1
# bedstraw = assay: Test B pre/postemergence bedstraw; assay type: in vivo, Galium aparine
# Method in brief: as §1
# rape = assay: Test B pre/postemergence rape; assay type: in vivo, Brassica napus
# Method in brief: as §1
# pigweed = assay: Test B pre/postemergence pigweed; assay type: in vivo, Amaranthus retroflexus
# Method in brief: as §1
# blackgrass = assay: Test B pre/postemergence blackgrass; assay type: in vivo, Alopecurus myosuroides
# Method in brief: as §1
# cocklebur = assay: Test B pre/postemergence cocklebur; assay type: in vivo, Xanthium strumarium
# Method in brief: as §1
# surinam grass = assay: Test B pre/postemergence surinam grass; assay type: in vivo, Brachiaria decumbens
# Method in brief: as §1
# sugar beet = assay: Test B pre/postemergence sugar beet; assay type: in vivo, Beta vulgaris
# Method in brief: as §1
# giant foxtail = assay: Test B pre/postemergence giant foxtail; assay type: in vivo, Setaria faberii
# Method in brief: as §1
# soybean = assay: Test B pre/postemergence soybean; assay type: in vivo, Glycine max
# Method in brief: as §1
# wheat = assay: Test B pre/postemergence wheat; assay type: in vivo, Triticum aestivum
# Method in brief: as §1
# corn = assay: Test B pre/postemergence corn; assay type: in vivo, Zea mays
# Method in brief: as §1
# wild oat = assay: Test B pre/postemergence wild oat; assay type: in vivo, Avena fatua
# Method in brief: as §1
# morningglory = assay: Test B pre/postemergence morningglory; assay type: in vivo, Ipomoea hederacea
# Method in brief: as §1
# velvetleaf = assay: Test B pre/postemergence velvetleaf; assay type: in vivo, Abutilon theophrasti
# Method in brief: as §1
# [1] = Postemergence, Rate 62 g/ha, scale 0 to 10, 0 is no effect, 10 is complete control
# [2] = Postemergence, Rate 125 g/ha, scale of 0 to 10 where 0 is no effect and 10 is complete control
# [3] = Postemergence, Rate 500 g/ha, scale 0 (no effect) to 10 (complete control)
# [4] = Preemergence, Rate 125 g/ha, scale of 0 to 10 where 0 is no effect and 10 is complete control
# [5] = Preemergence, Rate 250 g/ha, scale 0 (no effect) to 10 (complete control)
# [6] = Rate 250 g/ha, Postemergence, scale 0 to 10, 0 is no effect, 10 is complete control
# [7] = Rate 500 g/ha, Preemergence, scale 0 to 10 (0 no effect, 10 complete control)
# [8] = Rate 62 g/ha, Preemergence, scale 0 to 10
structure (smiles),measurement,setting,value
CC(C)N(C(=O)n1oc(=O)n(CCN(C)C(=O)c2ccccc2)c1=O)c1ccc(F)cc1F [Compound 762],"Plant response rating, Crabgrass",crabgrass; [1],0
same,Crabgrass plant response rating,crabgrass; [2],0
same,Crabgrass plant response rating,crabgrass; [3],8
same,"Plant response rating, Crabgrass",crabgrass; [4],4
same,Crabgrass plant response rating,crabgrass; [5],4
same,Crabgrass plant response rating,crabgrass; [6],3
same,Crabgrass plant response rating,crabgrass; [7],0
same,"Plant response rating, Nutsedge",purple nutsedge; [1],0
same,Nutsedge plant response rating,purple nutsedge; [2],0
same,Nutsedge plant response rating,purple nutsedge; [3],3
same,"Plant response rating, Nutsedge",purple nutsedge; [4],0
same,Nutsedge plant response rating,purple nutsedge; [5],0
same,Nutsedge plant response rating,purple nutsedge; [8],0
same,Nutsedge plant response rating,purple nutsedge; [6],0
same,Nutsedge plant response rating,purple nutsedge; [7],6
same,"Plant response rating, Bedstraw",bedstraw; [1],0
same,Bedstraw plant response rating,bedstraw; [2],0
same,Bedstraw plant response rating,bedstraw; [3],0
same,"Plant response rating, Bedstraw",bedstraw; [4],0
same,Bedstraw plant response rating,bedstraw; [5],0
same,Bedstraw plant response rating,bedstraw; [8],0
same,Bedstraw plant response rating,bedstraw; [6],0
same,Bedstraw plant response rating,bedstraw; [7],0
same,"Plant response rating, Rape",rape; [1],0
same,Rape plant response rating,rape; [3],0
same,"Plant response rating, Rape",rape; [4],0
same,Rape plant response rating,rape; [5],0
same,Rape plant response rating,rape; [8],0
same,Rape plant response rating,rape; [6],0
same,Rape plant response rating,rape; [7],0
same,"Plant response rating, Redroot pigweed",pigweed; [1],0
same,Redroot pigweed plant response rating,pigweed; [2],0
same,Redroot pigweed plant response rating,pigweed; [3],6
same,"Plant response rating, Redroot pigweed",pigweed; [4],2
same,Redroot pigweed plant response rating,pigweed; [5],3
same,Redroot pigweed plant response rating,pigweed; [8],2
same,Redroot pigweed plant response rating,pigweed; [6],6
same,Redroot pigweed plant response rating,pigweed; [7],3
same,"Plant response rating, Blackgrass",blackgrass; [1],0
same,Blackgrass plant response rating,blackgrass; [2],0
same,Blackgrass plant response rating,blackgrass; [3],0
same,"Plant response rating, Blackgrass",blackgrass; [4],0
same,Blackgrass plant response rating,blackgrass; [5],7
same,Blackgrass plant response rating,blackgrass; [8],0
same,Blackgrass plant response rating,blackgrass; [6],0
same,Blackgrass plant response rating,blackgrass; [7],9
same,"Plant response rating, Cocklebur",cocklebur; [1],0
same,Cocklebur plant response rating,cocklebur; [2],0
same,Cocklebur plant response rating,cocklebur; [3],0
same,"Plant response rating, Cocklebur",cocklebur; [4],0
same,Cocklebur plant response rating,cocklebur; [5],0
same,Cocklebur plant response rating,cocklebur; [8],0
same,Cocklebur plant response rating,cocklebur; [6],0
same,Cocklebur plant response rating,cocklebur; [7],0
same,"Plant response rating, B. signalgrass",surinam grass; [1],0
same,B. signalgrass plant response rating,surinam grass; [2],0
same,B. signalgrass plant response rating,"surinam grass; Preemergence, Rate 62 g/ha, scale of 0 to 10 where 0 is no effect and 10 is complete control",0
same,"Plant response rating, B. signalgrass",surinam grass; [4],0
same,B. signalgrass plant response rating,surinam grass; [5],6
same,B. signalgrass plant response rating,surinam grass; [6],2
same,B. signalgrass plant response rating,"surinam grass; Rate 500 g/ha, Postemergence, scale 0 to 10, 0 is no effect, 10 is complete control",3
same,B. signalgrass plant response rating,surinam grass; [7],9
same,"Plant response rating, Sugarbeets",sugar beet; [1],0
same,Sugarbeets plant response rating,sugar beet; [3],6
same,"Plant response rating, Sugarbeets",sugar beet; [4],0
same,Sugarbeets plant response rating,sugar beet; [5],4
same,Sugarbeets plant response rating,sugar beet; [8],0
same,Sugarbeets plant response rating,sugar beet; [6],6
same,Sugarbeets plant response rating,sugar beet; [7],4
same,Giant foxtail plant response rating,giant foxtail; [2],0
same,"Plant response rating, Giant foxtail",giant foxtail; [4],10
same,Giant foxtail plant response rating,giant foxtail; [5],9
same,Giant foxtail plant response rating,giant foxtail; [8],5
same,Giant foxtail plant response rating,giant foxtail; [6],8
same,Giant foxtail plant response rating,giant foxtail; [7],9
same,"Plant response rating, Soybean",soybean; [1],2
same,Soybean plant response rating,soybean; [3],4
same,"Plant response rating, Soybean",soybean; [4],0
same,Soybean plant response rating,soybean; [5],0
same,Soybean plant response rating,soybean; [8],0
same,Soybean plant response rating,soybean; [6],4
same,Soybean plant response rating,soybean; [7],0
same,"Plant response rating, Wheat",wheat; [1],0
same,Wheat plant response rating,wheat; [3],0
same,"Plant response rating, Wheat",wheat; [4],0
same,Wheat plant response rating,wheat; [5],0
same,Wheat plant response rating,wheat; [8],0
same,Wheat plant response rating,wheat; [6],0
same,Wheat plant response rating,wheat; [7],0
same,"Plant response rating, Corn",corn; [1],0
same,Corn plant response rating,corn; [2],0
same,Corn plant response rating,corn; [3],2
same,"Plant response rating, Corn",corn; [4],0
same,Corn plant response rating,corn; [5],0
same,Corn plant response rating,corn; [8],0
same,Corn plant response rating,corn; [6],2
same,Corn plant response rating,corn; [7],0
same,"Plant response rating, Wild oats",wild oat; [1],0
same,Wild oats plant response rating,wild oat; [3],2
same,"Plant response rating, Wild oats",wild oat; [4],0
same,Wild oats plant response rating,wild oat; [5],0
same,Wild oats plant response rating,wild oat; [8],0
same,Wild oats plant response rating,wild oat; [6],0
same,Wild oats plant response rating,wild oat; [7],0
same,"Plant response rating, Morningglory",morningglory; [1],0
same,Morningglory plant response rating,morningglory; [2],2
same,Morningglory plant response rating,morningglory; [3],2
same,"Plant response rating, Morningglory",morningglory; [4],0
same,Morningglory plant response rating,morningglory; [5],0
same,Morningglory plant response rating,morningglory; [8],0
same,Morningglory plant response rating,morningglory; [6],2
same,Morningglory plant response rating,morningglory; [7],0
same,"Plant response rating, Velvetleaf",velvetleaf; [1],0
same,Velvetleaf plant response rating,velvetleaf; [3],3
same,"Plant response rating, Velvetleaf",velvetleaf; [4],0
same,Velvetleaf plant response rating,velvetleaf; [5],0
same,Velvetleaf plant response rating,velvetleaf; [8],0
same,Velvetleaf plant response rating,velvetleaf; [6],3
same,Velvetleaf plant response rating,velvetleaf; [7],5
